The record followed here is patent US8299048B2, “Hexahydrocyclopentyl[f]indazole sulfonamides and derivatives thereof as selective glucocorticoid receptor modulators” (Merck Sharp & Dohme Corp., priority 2008, dated 2012).

This experiment concerns the target T1, glucocorticoid receptor (Homo sapiens, UniProt P04150).
T1 construct: endogenous in cells
T1 sequence (P04150 1-777): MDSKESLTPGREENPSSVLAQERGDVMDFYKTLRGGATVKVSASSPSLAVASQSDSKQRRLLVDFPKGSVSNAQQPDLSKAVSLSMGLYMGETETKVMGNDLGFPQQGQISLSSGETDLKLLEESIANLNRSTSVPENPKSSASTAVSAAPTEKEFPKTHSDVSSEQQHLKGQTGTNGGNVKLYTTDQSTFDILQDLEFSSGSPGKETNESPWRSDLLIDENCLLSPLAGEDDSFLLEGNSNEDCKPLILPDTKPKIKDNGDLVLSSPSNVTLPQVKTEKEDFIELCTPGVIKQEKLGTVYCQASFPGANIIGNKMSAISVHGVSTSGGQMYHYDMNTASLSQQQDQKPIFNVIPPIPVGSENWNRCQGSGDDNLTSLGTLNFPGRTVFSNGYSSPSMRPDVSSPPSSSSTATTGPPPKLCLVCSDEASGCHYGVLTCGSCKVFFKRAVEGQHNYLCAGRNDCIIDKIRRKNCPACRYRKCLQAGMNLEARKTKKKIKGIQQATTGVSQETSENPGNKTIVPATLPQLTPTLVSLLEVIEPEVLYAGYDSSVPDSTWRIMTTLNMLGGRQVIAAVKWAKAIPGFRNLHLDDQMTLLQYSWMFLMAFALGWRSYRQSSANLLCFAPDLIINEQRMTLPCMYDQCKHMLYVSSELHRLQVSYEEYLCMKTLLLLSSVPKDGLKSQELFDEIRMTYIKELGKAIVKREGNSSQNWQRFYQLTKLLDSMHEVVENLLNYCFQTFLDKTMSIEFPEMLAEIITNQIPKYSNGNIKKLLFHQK
Briefly: Ligand binding assay (GR BIND). The procedure, abridged: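 Cytosol from freeze–thawed cells in TEGM (pH 7.2, 10 mM molybdate) was incubated overnight at 4 °C with compound and [3H]-dexamethasone trace (added as 6 nM solution), 2% EtOH final. Bound ligand was captured on hydroxylapatite, filtered, washed and scintillation counted. Values were calculated with dexamethasone as reference.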

Take `C[C@]12Cc3cnn(-c4ccc(F)cc4)c3C=C1CC[C@@H]2CN(CCc1ccccn1)S(=O)(=O)Cc1cccnc1` [Example 1, N-{[(4αR,5S)-1-(4-Fluorophenyl)-4α-methyl-1,4,4α,5,6,7-hexahydrocyclopenta[f]indazol-5-yl]methyl}-1-pyridin-3-yl-N-(2-pyridin-2-ylethyl)methanesulfonamide]: the Ki worked out at 1.8 nM. This counts as single-digit nanomolar.

Consider `C[C@]12Cc3cnn(-c4ccc(F)cc4)c3C=C1CC[C@@H]2CN(CC1CC1)S(=O)(=O)c1ccccc1F` [Example 2, N-(cyclopropylmethyl)-2-fluoro-N-{[(4αR,5S)-1-(4-fluorophenyl)-4α-methyl-1,4,4α,5,6,7-hexahydrocyclopenta[f]indazol-5-yl]methyl}benzenesulfonamide], for which the Ki was 0.6 nM.

For the molecule `C=CCN(C[C@H]1CCC2=Cc3c(cnn3-c3ccc(F)cc3)C[C@@]21C)S(=O)(=O)c1ccccc1F` [Example 3, N-allyl-2-fluoro-N-{[(4αR,5S)-1-(4-fluorophenyl)-4α-methyl-1,4,4α,5,6,7-hexahydrocyclopenta[f]indazol-5-yl]methyl}benzenesulfonamide], the Ki came out at 0.8 nM.

In the case of `C[C@]12Cc3cnn(-c4ccc(F)cc4)c3C=C1CC[C@@H]2CN(CC1CC1)S(=O)(=O)c1ccccc1C(F)(F)F` [Example 4, N-(cyclopropylmethyl)-N-{[(4αR,5S)-1-(4-fluorophenyl)-4α-methyl-1,4,4α,5,6,7-hexahydrocyclopenta[f]indazol-5-yl]methyl}-2-(trifluoromethyl)benzenesulfonamide], the Ki worked out at 2.2 nM.

Take `C[C@]12Cc3cnn(-c4ccc(F)cc4)c3C=C1CC[C@@H]2CN(CCO)S(=O)(=O)Cc1cccc(C(F)(F)F)c1` [Example 63, N-{[(4αR,5S)-1-(4-fluorophenyl)-4α-methyl-1,4,4α,5,6,7-hexahydrocyclopenta[f]indazol-5-yl]methyl}-N-(2-hydroxyethyl)-1-[3-(trifluoromethyl)phenyl]methanesulfonamide]: the Ki is 9.1 nM.

On to `Cc1ccc(S(=O)(=O)N(CCO)C[C@H]2CCC3=Cc4c(cnn4-c4ccc(F)cc4)C[C@@]32C)s1` [Example 64, N-{[(4αR,5S)-1-(4-fluorophenyl)-4α-methyl-1,4,4α,5,6,7-hexahydrocyclopenta[f]indazol-5-yl]methyl}-N-(2-hydroxyethyl)-5-methylthiophene-2-sulfonamide], for which the Ki turned out to be 3 nM.

Take `Cn1cc(S(=O)(=O)N(CCO)C[C@H]2CCC3=Cc4c(cnn4-c4ccc(F)cc4)C[C@@]32C)c(C(F)(F)F)n1` [Example 65, N-{[(4αR,5S)-1-(4-fluorophenyl)-4α-methyl-1,4,4α,5,6,7-hexahydrocyclopenta[f]indazol-5-yl]methyl}-N-(2-hydroxyethyl)-1-methyl-3-(trifluoromethyl)-1H-pyrazole-4-sulfonamide]: the affinity corresponds to a Ki of 2.7 nM. The Ki values of the last two molecules are within 1.5-fold of each other.

With `Cc1cc(S(=O)(=O)N(CCO)C[C@H]2CCC3=Cc4c(cnn4-c4ccc(F)cc4)C[C@@]32C)c(C)o1` [Example 66, N-{[(4αR,5S)-1-(4-fluorophenyl)-4α-methyl-1,4,4α,5,6,7-hexahydrocyclopenta[f]indazol-5-yl]methyl}-N-(2-hydroxyethyl)-2,5-dimethylfuran-3-sulfonamide], the affinity, expressed as Ki, was 7.9 nM.

As to `Cn1nc(C(F)(F)F)cc1-c1ccc(S(=O)(=O)N(CCO)C[C@H]2CCC3=Cc4c(cnn4-c4ccc(F)cc4)C[C@@]32C)s1` [Example 67, N-{[(4αR,5S)-1-(4-fluorophenyl)-4α-methyl-1,4,4α,5,6,7-hexahydrocyclopenta[f]indazol-5-yl]methyl}-N-(2-hydroxyethyl)-5-[1-methyl-3-(trifluoromethyl)-1H-pyrazole-5-yl]thiophene-2-sulfonamide], affinity was put at a Ki of 13.4 nM.

Molecule `C[C@]12Cc3cnn(-c4ccc(F)cc4)c3C=C1CC[C@@H]2CN(CCO)S(=O)(=O)c1cccc(C#N)c1` [Example 68, 3-cyano-N-{[(4αR,5S)-1-(4-fluorophenyl)-4α-methyl-1,4,4α,5,6,7-hexahydrocyclopenta[f]indazol-5-yl]methyl}-N-(2-hydroxyethyl)benezenesulfonamide] showed a Ki of 3.6 nM. Compared with the last molecule, the Ki is about 3.7-fold lower.

For the molecule `C[C@]12Cc3cnn(-c4ccc(F)cc4)c3C=C1CC[C@@H]2CN(CCO)S(=O)(=O)c1ccc(Oc2cccc(Cl)c2C#N)cc1` [Example 69, 4-(3-chloro-2-cyanophenoxy)-N-{[(4αR,5S)-1-(4-fluorophenyl)-4α-methyl-1,4,4α,5,6,7-hexahydrocyclopenta[f]indazol-5-yl]methyl}-N-(2-hydroxyethyl)benzenesulfonamide], the Ki amounted to 8.7 nM.

In turn, `C[C@]12Cc3cnn(-c4ccc(F)cc4)c3C=C1CC[C@@H]2CN(CCO)S(=O)(=O)c1ccccc1C(F)(F)F` [Example 70, N-{[(4αR,5S)-1-(4-fluorophenyl)-4α-methyl-1,4,4α,5,6,7-hexahydrocyclopenta[f]indazol-5-yl]methyl}-N-(2-hydroxyethyl)-2-(trifluoromethyl)benzenesulfonamide] registered a Ki of 4.5 nM.

As for `Cc1noc(C)c1S(=O)(=O)N(CCO)C[C@H]1CCC2=Cc3c(cnn3-c3ccc(F)cc3)C[C@@]21C` [Example 71, N-{[(4αR,5S)-1-(4-fluorophenyl)-4α-methyl-1,4,4α,5,6,7-hexahydrocyclopenta[f]indazol-5-yl]methyl}-N-(2-hydroxyethyl)-3,5-dimethylisoxazole-4-sulfonamide], the Ki came out at 5 nM.

As for `C[C@]12Cc3cnn(-c4ccc(F)cc4)c3C=C1CC[C@@H]2CN(CCO)S(=O)(=O)c1cc(F)cc(F)c1` [Example 72], the Ki came to 1.4 nM.

The molecule `COC(=O)c1ccccc1S(=O)(=O)N(CCO)C[C@H]1CCC2=Cc3c(cnn3-c3ccc(F)cc3)C[C@@]21C` [Example 73, methyl 2-{[{[(4αR,5S)-1-(4-fluorophenyl)-4α-methyl-1,4,4α,5,6,7-hexahydrocyclopenta[f]indazol-5-yl]methyl}(2-hydroxyethyl)amino]sulfonyl}benzoate] gave a Ki of 3.1 nM.

`C[C@]12Cc3cnn(-c4ccc(F)cc4)c3C=C1CC[C@@H]2CN(CCO)S(=O)(=O)c1ccc(Oc2ccccn2)cc1` [Example 74, N-{[(4αR,5S)-1-(4-fluorophenyl)-4α-methyl-1,4,4α,5,6,7-hexahydrocyclopenta[f]indazol-5-yl]methyl}-N-(2-hydroxyethyl)-4-(pyridin-2-yloxy)benzenesulfonamide] yielded a Ki of 3 nM.

As for `C[C@]12Cc3cnn(-c4ccc(F)cc4)c3C=C1CC[C@@H]2CN(CCO)S(=O)(=O)Cc1ccccc1` [Example 75, N-{[(4αR,5S)-1-(4-fluorophenyl)-4α-methyl-1,4,4α,5,6,7-hexahydrocyclopenta[f]indazol-5-yl]methyl}-N-(2-hydroxyethyl)-1-phenylmethanesulfonamide], the Ki stood at 2.5 nM.

The molecule `CNC(=O)Nc1ccc(S(=O)(=O)N(CCO)C[C@H]2CCC3=Cc4c(cnn4-c4ccc(F)cc4)C[C@@]32C)c(Cl)c1` [Example 76, 2-chloro-N-{[(4αR,5S)-1-(4-fluorophenyl)-4α-methyl-1,4,4α,5,6,7-hexahydrocyclopenta[f]indazol-5-yl]methyl}-N-(2-hydroxyethyl)-4-{[(methylamino)carbonyl]amino}-benzenesulfonamide] gave a Ki of 7.7 nM.

`Cc1ccccc1S(=O)(=O)N(CCO)C[C@H]1CCC2=Cc3c(cnn3-c3ccc(F)cc3)C[C@@]21C` [Example 77, N-{[(4αR,5S)-1-(4-fluorophenyl)-4α-methyl-1,4,4α,5,6,7-hexahydrocyclopenta[f]indazol-5-yl]methyl}-N-(2-hydroxyethyl)-2-methylbenzenesulfonamide] came in with a Ki of 1.8 nM. This Ki lies about 4.3-fold lower than the previous one.

With `C[C@]12Cc3cnn(-c4ccc(F)cc4)c3C=C1CC[C@@H]2CN(CCO)S(=O)(=O)c1ccccc1C#N` [Example 78, 2-cyano-N-{[(4αR,5S)-1-(4-fluorophenyl)-4α-methyl-1,4,4α,5,6,7-hexahydrocyclopenta[f]indazol-5-yl]methyl}-N-(2-hydroxyethyl)benzenesulfonamide], affinity was put at a Ki of 2.3 nM.

The molecule `C[C@]12Cc3cnn(-c4ccc(F)cc4)c3C=C1CC[C@@H]2CN(CCO)S(=O)(=O)c1ccc(Oc2ccccc2)cc1` [Example 79, N-{[(4αR,5S)-1-(4-fluorophenyl)-4α-methyl-1,4,4α,5,6,7-hexahydrocyclopenta[f]indazol-5-yl]methyl}-N-(2-hydroxyethyl)-4-phenoxybenzenesulfonamide] displayed a Ki of 4.8 nM.

Regarding `C[C@]12Cc3cnn(-c4ccc(F)cc4)c3C=C1CC[C@@H]2CN(CCO)S(=O)(=O)c1cc(C(F)(F)F)ccc1Cl` [Example 80, 2-chloro-N-{[(4αR,5S)-1-(4-fluorophenyl)-4α-methyl-1,4,4α,5,6,7-hexahydrocyclopenta[f]indazol-5-yl]methyl}-N-(2-hydroxyethyl)-5-(trifluoromethyl)benzenesulfonamide], the Ki turned out to be 13.7 nM.

In general, Ki refers to a measure of affinity in units of concentration, obtained from inhibition or displacement. Higher therefore signals a looser hold on the target.
